Calls of active or inactive are those of the source. The rule behind the calls is not given here.
Assays:
[1] = target: T1, von Hippel-Lindau disease tumor suppressor/Phosphatidylinositol 4,5-bisphosphate 3-kinase catalytic subunit beta isoform (Homo sapiens, UniProt P42338+P40337); assay: PROTAC activity at PI3K-p110beta/VHL in human A549/DDP cells assessed as induction of PI3K-p110beta degradation incubated for 24 hrs by Western blot analysis; type: cell-based; conditions: dose 0.04-50 µM
Target sequence in this assay (P40337 whole entry, looked up, canonical isoform): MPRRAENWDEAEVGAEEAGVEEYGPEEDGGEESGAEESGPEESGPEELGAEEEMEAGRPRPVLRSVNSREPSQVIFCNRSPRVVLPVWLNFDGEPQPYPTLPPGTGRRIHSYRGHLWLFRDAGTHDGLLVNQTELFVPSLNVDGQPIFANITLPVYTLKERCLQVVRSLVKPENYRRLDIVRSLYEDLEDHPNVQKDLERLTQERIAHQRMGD
Target sequence in this assay (P42338 whole entry, looked up, canonical isoform): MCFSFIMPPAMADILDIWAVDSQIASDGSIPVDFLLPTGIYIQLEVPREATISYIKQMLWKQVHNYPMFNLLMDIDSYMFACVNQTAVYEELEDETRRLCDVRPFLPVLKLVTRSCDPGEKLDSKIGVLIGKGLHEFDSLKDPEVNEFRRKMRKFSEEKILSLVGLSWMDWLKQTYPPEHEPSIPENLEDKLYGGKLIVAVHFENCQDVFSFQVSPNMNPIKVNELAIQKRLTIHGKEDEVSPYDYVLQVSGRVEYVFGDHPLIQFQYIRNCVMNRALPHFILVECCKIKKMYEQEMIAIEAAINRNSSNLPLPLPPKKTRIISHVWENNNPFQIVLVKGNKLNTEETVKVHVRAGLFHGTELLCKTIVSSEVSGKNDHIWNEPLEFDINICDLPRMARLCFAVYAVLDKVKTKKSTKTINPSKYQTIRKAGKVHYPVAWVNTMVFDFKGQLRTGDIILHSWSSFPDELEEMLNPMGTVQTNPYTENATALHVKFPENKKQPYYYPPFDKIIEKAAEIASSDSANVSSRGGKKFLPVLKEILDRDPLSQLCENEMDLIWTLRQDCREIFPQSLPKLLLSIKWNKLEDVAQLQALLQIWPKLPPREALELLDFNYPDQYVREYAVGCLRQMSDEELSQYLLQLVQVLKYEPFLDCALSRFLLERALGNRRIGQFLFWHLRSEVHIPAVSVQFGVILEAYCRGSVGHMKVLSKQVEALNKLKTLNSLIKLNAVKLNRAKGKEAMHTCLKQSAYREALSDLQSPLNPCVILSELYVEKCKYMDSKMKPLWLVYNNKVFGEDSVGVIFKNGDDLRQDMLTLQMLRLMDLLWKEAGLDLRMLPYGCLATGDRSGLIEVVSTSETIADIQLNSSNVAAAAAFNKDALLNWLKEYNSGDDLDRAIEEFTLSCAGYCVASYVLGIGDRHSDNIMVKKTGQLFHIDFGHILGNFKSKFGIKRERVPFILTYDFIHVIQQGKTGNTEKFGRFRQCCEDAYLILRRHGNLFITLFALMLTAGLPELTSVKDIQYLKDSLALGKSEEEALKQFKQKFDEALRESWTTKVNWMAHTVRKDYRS

[2] = target: von Hippel-Lindau disease tumor suppressor/Phosphatidylinositol 4,5-bisphosphate 3-kinase catalytic subunit alpha isoform (Homo sapiens, UniProt P42336+P40337); assay: PROTAC activity at PI3K-p110alpha/VHL in human A549/DDP cells assessed as induction of PI3K-p110alpha degradation at 0.04 to 50 uM by Western blot analysis; type: cell-based; conditions: dose 0.04-50 µM, time 24.0 hrs
von Hippel-Lindau disease tumor suppressor/Phosphatidylinositol 4,5-bisphosphate 3-kinase catalytic subunit alpha isoform, sequence (P40337 whole entry, looked up, canonical isoform): as the sequence (P40337 whole entry, looked up, canonical isoform) above
von Hippel-Lindau disease tumor suppressor/Phosphatidylinositol 4,5-bisphosphate 3-kinase catalytic subunit alpha isoform, sequence (P42336 whole entry, looked up, canonical isoform): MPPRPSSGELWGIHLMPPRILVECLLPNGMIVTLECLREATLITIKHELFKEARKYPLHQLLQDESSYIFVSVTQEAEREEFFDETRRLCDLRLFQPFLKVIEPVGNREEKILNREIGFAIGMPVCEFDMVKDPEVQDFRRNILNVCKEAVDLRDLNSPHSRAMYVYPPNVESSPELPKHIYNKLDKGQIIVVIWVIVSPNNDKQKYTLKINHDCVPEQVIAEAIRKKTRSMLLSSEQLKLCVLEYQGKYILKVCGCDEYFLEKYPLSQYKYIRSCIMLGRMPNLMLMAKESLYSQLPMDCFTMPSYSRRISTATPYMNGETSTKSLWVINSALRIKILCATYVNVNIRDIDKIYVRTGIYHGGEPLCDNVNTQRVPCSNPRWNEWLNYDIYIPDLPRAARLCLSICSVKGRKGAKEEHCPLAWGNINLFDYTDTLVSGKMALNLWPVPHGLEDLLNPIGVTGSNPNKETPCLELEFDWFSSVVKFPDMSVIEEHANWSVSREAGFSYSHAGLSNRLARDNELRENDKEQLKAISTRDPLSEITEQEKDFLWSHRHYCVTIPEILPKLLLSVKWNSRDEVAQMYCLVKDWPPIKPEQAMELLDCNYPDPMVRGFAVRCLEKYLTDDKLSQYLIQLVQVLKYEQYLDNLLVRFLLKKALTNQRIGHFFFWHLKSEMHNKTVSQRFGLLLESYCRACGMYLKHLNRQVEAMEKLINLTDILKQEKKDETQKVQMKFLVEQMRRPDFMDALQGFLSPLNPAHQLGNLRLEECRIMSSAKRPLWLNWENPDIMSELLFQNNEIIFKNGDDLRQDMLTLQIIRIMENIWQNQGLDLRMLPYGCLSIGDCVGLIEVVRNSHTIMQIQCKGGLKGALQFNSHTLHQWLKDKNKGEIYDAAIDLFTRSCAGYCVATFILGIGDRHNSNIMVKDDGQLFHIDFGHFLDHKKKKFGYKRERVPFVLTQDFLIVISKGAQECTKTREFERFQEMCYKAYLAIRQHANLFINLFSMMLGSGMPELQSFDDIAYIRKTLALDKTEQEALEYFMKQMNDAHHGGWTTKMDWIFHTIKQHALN

[3] = target: T1, von Hippel-Lindau disease tumor suppressor/Phosphatidylinositol 4,5-bisphosphate 3-kinase catalytic subunit beta isoform; assay: PROTAC activity at PI3K-p110beta/VHL in human A549/DDP cells assessed as reduction in PI3K-p110beta level incubated for 24 hrs by Western blot analysis; type: cell-based
[4] = target: T1, von Hippel-Lindau disease tumor suppressor/Phosphatidylinositol 4,5-bisphosphate 3-kinase catalytic subunit beta isoform; assay: PROTAC activity at PI3K-p110beta/VHL in human A549/DDP cells assessed as reduction in PI3K-p110beta level incubated for 2 hrs by Western blot analysis; type: cell-based
Target sequence in this assay (P40337 whole entry, looked up, canonical isoform): as the sequence (P40337 whole entry, looked up, canonical isoform) above
Target sequence in this assay (P42338 whole entry, looked up, canonical isoform): as the sequence (P42338 whole entry, looked up, canonical isoform) above

[5] = target: T1, von Hippel-Lindau disease tumor suppressor/Phosphatidylinositol 4,5-bisphosphate 3-kinase catalytic subunit beta isoform; assay: PROTAC activity at PI3K-p110beta/VHL in human A549/DDP cells assessed as reduction in PI3K-p110beta level incubated for 12 to 36 hrs hrs by Western blot analysis; type: cell-based; conditions: time 12-36 hrs
Target sequence in this assay (P40337 whole entry, looked up, canonical isoform): as the sequence (P40337 whole entry, looked up, canonical isoform) above
Target sequence in this assay (P42338 whole entry, looked up, canonical isoform): as the sequence (P42338 whole entry, looked up, canonical isoform) above

[6] = target: T1, von Hippel-Lindau disease tumor suppressor/Phosphatidylinositol 4,5-bisphosphate 3-kinase catalytic subunit beta isoform; assay: PROTAC activity at PI3K-p110beta/VHL in human A549/DDP cells assessed as reduction in PI3K-p110beta level by Western blot analysis; type: cell-based; conditions: time <= 48.0 hrs
Target sequence in this assay (P40337 whole entry, looked up, canonical isoform): as the sequence (P40337 whole entry, looked up, canonical isoform) above
Target sequence in this assay (P42338 whole entry, looked up, canonical isoform): as the sequence (P42338 whole entry, looked up, canonical isoform) above

[7] = target: T1, von Hippel-Lindau disease tumor suppressor/Phosphatidylinositol 4,5-bisphosphate 3-kinase catalytic subunit beta isoform; assay: PROTAC activity at PI3K-p110beta/VHL in human MCF7/ADM cells assessed as induction of PI3K-p110beta degradation at 25 uM measured for 24 hrs in presence of MG132 by Western blot analysis; type: cell-based
Target sequence in this assay (P40337 whole entry, looked up, canonical isoform): as the sequence (P40337 whole entry, looked up, canonical isoform) above
Target sequence in this assay (P42338 whole entry, looked up, canonical isoform): as the sequence (P42338 whole entry, looked up, canonical isoform) above

[8] = target: T1, von Hippel-Lindau disease tumor suppressor/Phosphatidylinositol 4,5-bisphosphate 3-kinase catalytic subunit beta isoform; assay: PROTAC activity at PI3K-p110beta/VHL in human A549/DDP cells assessed as induction of PI3K-p110beta degradation at 25 uM measured for 24 hrs in presence of VHL ligand by Western blot analysis; type: cell-based
Target sequence in this assay (P40337 whole entry, looked up, canonical isoform): as the sequence (P40337 whole entry, looked up, canonical isoform) above
Target sequence in this assay (P42338 whole entry, looked up, canonical isoform): as the sequence (P42338 whole entry, looked up, canonical isoform) above

[9] = target: T1, von Hippel-Lindau disease tumor suppressor/Phosphatidylinositol 4,5-bisphosphate 3-kinase catalytic subunit beta isoform; assay: PROTAC activity at PI3K-p110beta/VHL in human MCF7/ADM cells assessed as induction of PI3K-p110beta degradation at 25 uM measured for 24 hrs in presence of TGX221 by Western blot analysis; type: cell-based
[10] = target: T1, von Hippel-Lindau disease tumor suppressor/Phosphatidylinositol 4,5-bisphosphate 3-kinase catalytic subunit beta isoform; assay: PROTAC activity at PI3K-p110beta/VHL in human MCF7/ADM cells assessed as reduction in PI3K-p110beta level at 25 uM measured for 24 hrs by Western blot analysis; type: cell-based
[11] = test system: A549; assay: Antitumor activity against human A549 cells assessed as cell viability incubated for 24 hrs by MTT assay; type: functional, cell-based; conditions: A549, 24 h
[12] = test system: A549/CDDP; assay: Induction of oxidative stress in human A549/DDP cells at 25 uM measured for 24 hrs; type: functional, cell-based
[13] = test system: MCF7/ADM; assay: Induction of ROS level in human MCF7/ADM cells at 25 uM measured for 24 hrs by MitoSOX staining based analysis; type: functional, cell-based
[14] = test system: Mitochondrial membrane; assay: Induction of mitochondrial membrane potential loss in human A549/DDP cells assessed as increase in green fluorescence at 25 uM incubated for 48 hrs by JC-1 staining based flow cytometry
[15] = test system: MCF7/ADM; assay: Upregulation of PTEN expression in human MCF7/ADM cells at 25 uM incubated for 24 hrs by Western blot analysis; type: functional, cell-based
[16] = test system: A549/CDDP; assay: Induction of apoptosis in human A549/DDP cells assessed as decrease in bax expression at 12.5 uM incubated for 24 hrs by Western blot analysis; type: functional, cell-based
[17] = test system: MCF7/ADM; assay: Induction of apoptosis in human MCF7/ADM cells assessed as decrease in bax expression at 12.5 uM incubated for 24 hrs by Western blot analysis; type: functional, cell-based
[18] = test system: A549/CDDP; assay: Induction of apoptosis in human A549/DDP cells assessed as increase in cleaved caspase-9 expression at 12.5 uM incubated for 24 hrs by Western blot analysis; type: functional, cell-based
[19] = test system: MCF7/ADM; assay: Induction of apoptosis in human MCF7/ADM cells assessed as increase in cleaved caspase-8 expression at 12.5 uM incubated for 24 hrs by Western blot analysis; type: functional, cell-based
[20] = test system: MCF7/ADM; assay: Induction of apoptosis in human MCF7/ADM cells assessed as increase in caspase-8 expression at 12.5 uM incubated for 24 hrs by Western blot analysis; type: functional, cell-based
[21] = test system: MCF7/ADM; assay: Upregulation of ATF4 expression in human MCF7/ADM cells at 0.25 to 25 uM incubated for 24 hrs by Western blot analysis; type: functional, cell-based; conditions: dose 0.25-25 µM
[22] = test system: A549/CDDP; assay: Upregulation of CHOP expression in human A549/DDP cells at 0.25 to 25 uM incubated for 24 hrs by Western blot analysis; type: functional, cell-based; conditions: dose 0.25-25 µM
[23] = target: T2, ATP-dependent translocase ABCB1 (Homo sapiens, UniProt P08183); assay: Inhibition of P-gp in human MCF7/ADM cells at 6.25 to 25 uM incubated for 24 hrs; type: cell-based; conditions: dose 6.25-25 µM
T2 sequence (P08183 whole entry): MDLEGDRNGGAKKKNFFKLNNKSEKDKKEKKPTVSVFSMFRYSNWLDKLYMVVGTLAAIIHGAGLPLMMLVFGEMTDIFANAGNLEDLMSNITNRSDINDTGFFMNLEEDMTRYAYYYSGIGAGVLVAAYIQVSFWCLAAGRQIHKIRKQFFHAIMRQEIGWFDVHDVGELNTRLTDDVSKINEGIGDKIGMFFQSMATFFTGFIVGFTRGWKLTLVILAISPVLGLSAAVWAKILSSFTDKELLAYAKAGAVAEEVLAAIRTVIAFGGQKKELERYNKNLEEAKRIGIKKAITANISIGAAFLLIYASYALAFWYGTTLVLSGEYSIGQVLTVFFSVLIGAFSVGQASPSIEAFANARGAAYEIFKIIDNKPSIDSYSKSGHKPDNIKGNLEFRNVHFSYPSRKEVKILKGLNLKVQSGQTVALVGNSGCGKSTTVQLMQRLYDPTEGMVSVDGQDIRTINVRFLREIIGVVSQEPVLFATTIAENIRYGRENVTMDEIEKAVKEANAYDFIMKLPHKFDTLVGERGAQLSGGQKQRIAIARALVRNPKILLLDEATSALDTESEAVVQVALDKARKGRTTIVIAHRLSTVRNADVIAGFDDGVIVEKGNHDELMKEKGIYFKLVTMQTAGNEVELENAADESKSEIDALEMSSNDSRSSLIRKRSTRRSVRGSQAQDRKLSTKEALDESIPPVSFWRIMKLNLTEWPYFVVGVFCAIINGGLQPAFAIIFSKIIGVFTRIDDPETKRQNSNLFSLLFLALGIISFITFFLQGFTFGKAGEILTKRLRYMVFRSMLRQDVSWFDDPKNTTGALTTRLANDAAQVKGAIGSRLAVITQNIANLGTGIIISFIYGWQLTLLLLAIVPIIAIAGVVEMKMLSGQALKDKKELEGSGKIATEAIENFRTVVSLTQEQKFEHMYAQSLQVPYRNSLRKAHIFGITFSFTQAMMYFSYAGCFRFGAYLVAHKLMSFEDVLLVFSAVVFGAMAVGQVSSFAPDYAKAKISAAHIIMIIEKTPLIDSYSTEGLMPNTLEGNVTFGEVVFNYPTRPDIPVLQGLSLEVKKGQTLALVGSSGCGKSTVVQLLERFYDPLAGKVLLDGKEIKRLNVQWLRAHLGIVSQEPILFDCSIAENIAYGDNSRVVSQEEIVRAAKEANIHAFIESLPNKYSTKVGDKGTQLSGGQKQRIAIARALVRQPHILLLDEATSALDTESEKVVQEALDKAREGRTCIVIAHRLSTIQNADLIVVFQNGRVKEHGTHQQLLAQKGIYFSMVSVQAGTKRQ

[24] = target: T2, ATP-dependent translocase ABCB1; assay: Inhibition of P-gp in human A549/DDP cells at 6.25 to 25 uM incubated for 24 hrs; type: cell-based; conditions: dose 6.25-25 µM
[25] = test system: MCF7/ADM; assay: Downregulation of p-gp level in human MCF7/ADM cells at 6.25 to 25 uM incubated for 24 hrs; type: functional, cell-based; conditions: dose 6.25-25 µM
[26] = test system: MCF7/ADM; assay: Antitumor activity against human MCF7/ADM cells xenografted in BALB/c mouse assessed as reduction in tumor volume at 50 mg/kg, ip measured every 2 days; type: functional, organism-based; conditions: time 2.0 day
[27] = test system: MCF7/ADM; assay: Antitumor activity against human MCF7/ADM cells xenografted in BALB/c mouse assessed as downregulation of p110beta level in tumor at 50 mg/kg, ip; type: functional, organism-based
[28] = test system: MCF7/ADM; assay: Antitumor activity against human MCF7/ADM cells xenografted in BALB/c mouse assessed as decrease in cleaved caspase-8 expression in tumor at 50 mg/kg, ip by Western blot analysis; type: functional, organism-based
[29] = test system: MCF7/ADM; assay: Antitumor activity against human MCF7/ADM cells xenografted in BALB/c mouse assessed as reduction in p-gp expression in tumor at 50 mg/kg, ip by Western blot analysis; type: functional, organism-based
[30] = Toxicity in BALB/c mouse xenografted with human MCF7/ADM cells assessed as heart damage at 50 mg/kg, ip by H and E staining based analysis; type: organism-based; conditions: in vivo
[31] = Toxicity in BALB/c mouse xenografted with human MCF7/ADM cells assessed as tumor damage at 50 mg/kg, ip by H and E staining based analysis; type: organism-based; conditions: in vivo
[32] = Toxicity in BALB/c mouse xenografted with human MCF7/ADM cells assessed as change in platelet count at 50 mg/kg, ip; type: organism-based; conditions: in vivo
[33] = Toxicity in BALB/c mouse xenografted with human MCF7/ADM cells assessed as change in ALT level at 50 mg/kg, ip; type: organism-based; conditions: in vivo
[34] = Toxicity in BALB/c mouse xenografted with human MCF7/ADM cells assessed as change in BUN level at 50 mg/kg, ip; type: organism-based; conditions: in vivo
[35] = Toxicity in BALB/c mouse xenografted with human MCF7/ADM cells assessed as change in creatinine level at 50 mg/kg, ip; type: organism-based; conditions: in vivo

Activity [1] | Activity [2] | Activity [4] | Activity [5] | Activity [6] | Activity [7] | Activity [8] | Activity [9] | Activity [10] | IC50 [11] | Activity [14] | Compound | Activity [12] | Activity [13] | Activity [15] | Activity [16] | Activity [17] | Activity [18] | Activity [19] | Activity [20] | Activity [21] | other results
Dose-dependent-effect | Time-dependent-effect | Active | Active | Time-dependent-effect | Active | Active | inactive | Active | 75.3 µM | Active | Cc1cc(C(C)Nc2ccccc2C(=O)NCCOCCOCCC(=O)N[C@H](C(=O)N2C[C@H](O)C[C@H]2C(=O)NCc2ccc(-c3scnc3C)cc2)C(C)(C)C)c2nc(N3CCOCC3)cc(=O)n2c1 (stereo not given in full) | Active | Active | Active | Active | Active | Active | Active | Active | Active | Activity ([3]; dose 0.04-50 µM): Dose-dependent-effect; Activity [22]: Active; inhibition (INH) [23]: Active; inhibition (INH) [24]: Active; Activity [25]: Active; Activity [26]: Active; Activity [27]: Active; Activity [28]: Active; Activity [29]: Active; Activity [30]: Non-toxic; Activity [31]: Non-toxic; Activity [32]: Non-toxic; Activity [33]: Non-toxic; Activity [34]: Non-toxic; Activity [35]: Non-toxic
Dose-dependent-effect | Time-dependent-effect | Active | Active | Time-dependent-effect | Active | Active | inactive | Active | 85.2 µM | Active | Cc1cc(C(C)Nc2ccccc2C(=O)NCCCCCCC(=O)N[C@H](C(=O)N2C[C@H](O)C[C@H]2C(=O)NCc2ccc(-c3scnc3C)cc2)C(C)(C)C)c2nc(N3CCOCC3)cc(=O)n2c1 (stereo not given in full) | Active | Active | Active | Active | Active | Active | Active | Active | Active | DC50 [3]: 2.19 µM; Activity [22]: Active; inhibition (INH) [23]: Active; inhibition (INH) [24]: Active; Activity [25]: Active; Activity [26]: Active; Activity [27]: Active; Activity [28]: Active; Activity [29]: Active; Activity [30]: Non-toxic; Activity [31]: Non-toxic; Activity [32]: Non-toxic; Activity [33]: Non-toxic; Activity [34]: Non-toxic; Activity [35]: Non-toxic

Reference: ChEMBL document CHEMBL6134905, “Double Swords in One: Novel Selective PI3K/110β PROTAC Degraders for the Treatment of Multidrug-Resistant Cancer by Activating ERS and Inhibiting P-gp” (J Med Chem, 2025)
